In patent US20260008760A1, “DIPEPTIDYL PEPTIDASE 1 INHIBITORS AND USES THEREOF” (Insmed Incorporated, priority 2024, published 2026):
Several values for one entry are separate records, joined by “and”; a condition that tells them apart may be missing. Identical values can stand only once. Like-named read-outs stand apart in the source and are kept apart here.

Key:
DPP1 in HL-60 cells [1] = target: T1, DPP1 in HL-60 cells (Homo sapiens, UniProt P53634); experiment: DPP1 Cell IC50 assay; assay type: cell-based; parameters: host or cells: HL-60 cells; conditions: 60 min pre-incubation, H-Gly-Phe-AFC substrate, average of n runs
T1 sequence (P53634 25-463): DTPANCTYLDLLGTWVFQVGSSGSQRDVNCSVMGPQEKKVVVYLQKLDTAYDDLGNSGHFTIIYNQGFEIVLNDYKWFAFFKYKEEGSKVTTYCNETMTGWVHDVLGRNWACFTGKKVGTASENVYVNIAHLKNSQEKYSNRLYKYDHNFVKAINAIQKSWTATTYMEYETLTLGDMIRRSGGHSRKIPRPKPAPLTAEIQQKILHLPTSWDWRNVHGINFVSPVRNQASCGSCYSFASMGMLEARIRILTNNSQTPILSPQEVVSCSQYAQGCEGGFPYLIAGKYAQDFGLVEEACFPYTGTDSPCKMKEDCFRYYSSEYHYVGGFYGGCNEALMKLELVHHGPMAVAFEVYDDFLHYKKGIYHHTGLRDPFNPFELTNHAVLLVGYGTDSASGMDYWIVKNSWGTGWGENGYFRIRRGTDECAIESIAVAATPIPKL
In short: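 HL-60 cells in PBS (5×10^5 live cells per mL) pre-incubated with compound (0.5% DMSO) 60 min at 37° C, 5% CO2, then H-Gly-Phe-AFC substrate (500 μM stock) added for 30 min. Fluorescence at 400/505 nm; % inhibition vs vehicle wells, IC50 from four-parameter logistic fit.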

DPP1 in HL-60 cells [2] = target: T1, DPP1 in HL-60 cells; experiment: DPP1 Cell Single-Point Percent Inhibition Testing; assay type: cell-based; parameters: host or cells: HL-60 cells; conditions: final compound concentration 5 nM, n = 1
In short: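 HL-60 cells in unsupplemented RPMI preincubated 60 min at 37 °C with test article (5 nM final, 0.1% DMSO), then given cell-permeable H-Gly-Phe-AFC (100 μM final) for 30 min. Fluorescence at 400/505 nm; percent inhibition versus vehicle after subtracting cell-free background and 10 μM brensocatib non-specific signal.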

human DPP1 enzyme [3] = target: T2, human DPP1 enzyme (Homo sapiens, UniProt P53634); experiment: Human DPP1 Enzyme IC50 Assay; assay type: biochemical; parameters: was first proteolytically processed into its mature form using recombinant human cathepsin L; purchased R&D Systems
In short: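 Recombinant human DPP1, pre-activated with cathepsin L (pH 4.5), was preincubated with compound 10 min at 37 °C in MES pH 6.0, 50 mM NaCl, 5 mM DTT, 1% DMSO. Cleavage of 400 μM (final) H-Gly-Arg-AMC followed by fluorescence (350/450 nm) over 90 min at 37 °C; IC50 from four-parameter logistic fit versus no-compound control.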
Target sequence in this assay (P53634 25-134 limits assumed): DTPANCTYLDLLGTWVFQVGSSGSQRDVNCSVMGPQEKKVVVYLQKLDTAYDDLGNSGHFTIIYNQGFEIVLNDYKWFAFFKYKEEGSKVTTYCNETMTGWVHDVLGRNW
Target sequence in this assay (P53634 231-394 limits assumed): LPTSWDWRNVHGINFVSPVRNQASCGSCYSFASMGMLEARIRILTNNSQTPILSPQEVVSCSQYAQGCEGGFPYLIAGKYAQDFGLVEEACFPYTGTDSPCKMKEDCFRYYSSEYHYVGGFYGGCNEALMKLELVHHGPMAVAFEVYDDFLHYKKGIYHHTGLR
Target sequence in this assay (P53634 395-463 limits assumed): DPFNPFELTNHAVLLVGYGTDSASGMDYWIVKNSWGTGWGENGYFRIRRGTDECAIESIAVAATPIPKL

human DPP1 enzyme [4] = target: T2, human DPP1 enzyme; experiment: Human DPP1 Enzyme Single-Point Percent Inhibition Testing (HL-60 lysate); assay type: biochemical; parameters: A crude lysate of HL-60 cells (ATCC; Manassas, VA) was used as a source of human DPP1 enzyme; host or cells: HL-60 cells (crude lysate); conditions: final compound concentration of 10 nM, 400 μM H-Gly-Arg-AMC, n = 1
In short: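 Enzyme source was HL-60 cell lysate in MES pH 6.0 buffer with NaCl and DTT, pre-incubated 10 min at 37° C with 10 nM compound (final, 1% DMSO). Cleavage of 400 μM H-Gly-Arg-AMC was followed at 350/450 nm over 90 min at 37° C, and percent inhibition was taken against vehicle wells.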
Target sequence in this assay (P53634 25-463): as the sequence (P53634 25-463) above

[5] = read-out: Avg. IC50 (DPP1 Cell IC50 value ranges)
[6] = activated recombinant human DPP1, 400 μM H-Gly-Arg-AMC, 10 minutes pre-incubation at 37° C., pH 6.0, average of n runs, read-out: Avg. IC50 (Human DPP1 enzyme IC50 value ranges)
[7] = Avg. IC50 (DPP1 Cell IC50 value ranges)

Structure (SMILES) | IC50 (DPP1 in HL-60 cells [1]; [5]) | inhibition at 0.005 µM (DPP1 in HL-60 cells [2]) | IC50 (human DPP1 enzyme [3]; [6]) | inhibition at 0.01 µM (human DPP1 enzyme [4]) | IC50 (DPP1 in HL-60 cells [1]; [7]) | IC50 (human DPP1 enzyme [3])
N#C[C@H](Cc1ccc(-c2ccc(S(=O)(=O)N3CCC3)cc2)cc1)NC(=O)[C@@H]1CNCCCO1 [Compound 19, (S)—N—((S)-2-(4′-(azetidin-1-ylsulfonyl)-[1,1′-biphenyl]-4-yl)-1-cyanoethyl)-1,4-oxazepane-2-carboxamide] | > 2.5 nM | ≤ 76.5% | > 15 nM | ≤ 40% |  | 
COC1CNC[C@@H](C(=O)N[C@H](C#N)Cc2ccc(-c3cc4c(C)nc(C)cn4c3)cc2F)OC1 (some centres unmarked) [Compound A88] | 1 to 2.5 nM | 76.5 to 93.9% | < 5 nM | ≥ 66.7% |  | 
CO[C@H]1CCO[C@H](C(=O)N[C@H](C#N)Cc2ccc(-c3cc4c(C)nc(C)cn4c3)cc2)CNC1 [Compound A92] | > 2.5 nM and 1 to 2.5 nM | ≤ 76.5% | > 15 nM | ≤ 40% |  | 
C[C@@H]1NC[C@@H](C(=O)N[C@H](C#N)Cc2ccc(-c3ccc4c(n3)CCCN4)cc2)OC[C@@H]1O [Compound A105] | > 2.5 nM | ≤ 76.5% | > 15 nM | ≤ 40% |  | 
C[C@@H]1NC[C@@H](C(=O)N[C@H](C#N)Cc2ccc(-c3cnc4c(n3)CCCC4)cc2F)OC[C@@H]1O [Compound A109] | > 2.5 nM and 1 to 2.5 nM | ≤ 76.5% | 5 to 15 nM and < 5 nM | 40 to 66.7% |  | 
Cc1ncc(C)n2cc(-c3ccc(C[C@@H](C#N)NC(=O)[C@@H]4CNCCCCO4)cc3)cc12 [Compound A137] | 1 to 2.5 nM | 76.5 to 93.9% | > 15 nM | ≤ 40% |  | 
Cc1nc(C)c2cc(-c3ccc(C[C@@H](C#N)NC(=O)[C@@H]4CNCCCCO4)cc3)cn2c1C [Compound A138] | < 1 nM | 76.5 to 93.9% | > 15 nM | ≤ 40% |  | 
N#C[C@H](Cc1ccc(-c2ccn3ccnc3c2)cc1)NC(=O)[C@@H]1CNCCCO1 [Compound A142] | > 2.5 nM | ≤ 76.5% | > 15 nM | ≤ 40% |  | 
N#Cc1ccc2c(c1)CSc1cc(C[C@@H](C#N)NC(=O)[C@@H]3CNCCCCO3)c(F)cc1-2 [Compound B17] | > 2.5 nM | ≤ 76.5% | 5 to 15 nM | 40 to 66.7% |  | 
N#Cc1ccc2c(c1)COc1cc(C[C@@H](C#N)NC(=O)[C@@H]3CNCCCO3)c(F)cc1-2 [Compound B32] |  | 76.5 to 93.9% |  | 40 to 66.7% | 1 to 2.5 nM | 5 to 15 nM
N#Cc1ccc2c(c1)-c1cc(F)c(CC(C#N)NC(=O)[C@@H]3CNCCCO3)cc1OC2 (some centres unmarked) [Compound B33] |  | ≤ 76.5% |  | ≤ 40% | > 2.5 nM | > 15 nM
Cn1c(=O)oc2cc3c(cc21)-c1cc(F)c(C[C@@H](C#N)NC(=O)[C@@H]2CNCCCCO2)cc1SC3 [Compound C8] | 1 to 2.5 nM | ≤ 76.5% | < 5 nM | ≥ 66.7% |  | 
Cn1c(=O)oc2ccc3c(c21)COc1cc(CC(C#N)NC(=O)[C@@H]2CNCCCO2)c(F)cc1-3 (some centres unmarked) [Compound C29] | > 2.5 nM and 1 to 2.5 nM | ≤ 76.5% | > 15 nM | ≤ 40% |  | 
N#C[C@H](Cc1cc2c(cc1F)-c1cc3c(cc1CO2)COC31CCN(C2COC2)CC1)NC(=O)[C@@H]1CNCCCO1 [Compound C31] | > 2.5 nM | ≤ 76.5% | < 5 nM | ≥ 66.7% |  | 
N#C[C@H](Cc1cc2c(cc1F)-c1cc3c(cc1CO2)COC31CCN(C2COC2)CC1)NC(=O)[C@@H]1CNCCCCO1 [Compound C32] | > 2.5 nM | ≤ 76.5% | < 5 nM | ≥ 66.7% |  | 
CO[C@H]1CCO[C@H](C(=O)N[C@H](C#N)Cc2ccc(-c3ccc4c(c3)C3(CCN(C5COC5)CC3)OC4)cc2F)CNC1 [Compound F5] | 1 to 2.5 nM | ≤ 76.5% | < 5 nM | ≥ 66.7% |  | 
CO[C@@H]1CCNC[C@@H](C(=O)N[C@H](C#N)Cc2ccc(-c3ccc4c(c3)C3(CCN(C5COC5)CC3)OC4)cc2F)OC1 [Compound F6] | > 2.5 nM | ≤ 76.5% | < 5 nM | ≥ 66.7% |  | 
CCN1C(=O)Cc2ccc(-c3ccc(C[C@@H](C#N)NC(=O)[C@@H]4CNCC[C@@H](OC)CO4)c(F)c3)cc21 [Compound G2] | 1 to 2.5 nM | ≤ 76.5% | < 5 nM | ≥ 66.7% |  | 
CCN1C(=O)Cc2ccc(-c3ccc(C[C@@H](C#N)NC(=O)[C@@H]4CN[C@@H](C)[C@@H](O)CO4)cc3)cc21 [Compound G9] | > 2.5 nM | ≤ 76.5% | > 15 nM | ≤ 40% |  | 
CCN1C(=O)Cc2ccc(-c3ccc(C[C@@H](C#N)NC(=O)[C@@H]4CN[C@@H](C)[C@@H](O)CO4)c(F)c3)cc21 [Compound G10] | > 2.5 nM | ≤ 76.5% | 5 to 15 nM | 40 to 66.7% |  | 
CCN1C(=O)Cc2ccc(-c3ccc(C[C@@H](C#N)NC(=O)[C@@H]4CNCCCO4)cc3)cc21 [Compound G11] | > 2.5 nM | ≤ 76.5% | > 15 nM | ≤ 40% |  | 
CCN1C(=O)Cc2ccc(-c3ccc(C[C@@H](C#N)NC(=O)[C@@H]4CNCCCO4)c(F)c3)cc21 [Compound G12] | > 2.5 nM and 1 to 2.5 nM | ≤ 76.5% | 5 to 15 nM | 40 to 66.7% |  | 
CO[C@@H]1CCNC[C@@H](C(=O)N[C@H](C#N)Cc2ccc(-c3ccc4cnn(C)c4c3)cc2)OC1 [Compound H5] | 1 to 2.5 nM | 76.5 to 93.9% | 5 to 15 nM | ≥ 66.7% |  | 
COC1CNC[C@@H](C(=O)N[C@H](C#N)Cc2ccc(-c3ccc4nnn(C)c4c3)cc2)OC1 (some centres unmarked) [Compound H12] | > 2.5 nM and 1 to 2.5 nM | ≤ 76.5% | < 5 nM | ≥ 66.7% |  | 
C[C@@H]1NC[C@@H](C(=O)N[C@H](C#N)Cc2ccc(-c3ccc4cnn(C)c4c3)cc2F)OC[C@@H]1O [Compound H31] | 1 to 2.5 nM | ≤ 76.5% | 5 to 15 nM and > 15 nM | 40 to 66.7% |  | 
C[C@@H]1NC[C@@H](C(=O)N[C@H](C#N)Cc2ccc(-c3ccn4ccnc4c3)cc2)OC[C@@H]1O [Compound H43] |  | ≤ 76.5% |  | ≤ 40% |  | 
N#C[C@H](Cc1ccc(-c2ccn3cnnc3c2)cc1)NC(=O)[C@@H]1CNCCCCO1 [Compound H44] |  | ≤ 76.5% |  | ≤ 40% |  | 
CN1CC[C@]2(C1)C(=O)OCc1ccc(-c3ccc(C[C@@H](C#N)NC(=O)[C@@H]4CNCCCO4)cc3)cc12 [Compound I2] | > 2.5 nM | ≤ 76.5% | 5 to 15 nM | 40 to 66.7% |  | 
CCCN1CCC2(CC1)SCCc1ccc(-c3ccc(C[C@@H](C#N)NC(=O)[C@@H]4CNCCCO4)cc3)cc12 [Compound I3] | > 2.5 nM | ≤ 76.5% | 5 to 15 nM | ≥ 66.7% |  | 
CN1CCC(N2CC[C@]3(COCc4ccc(-c5ccc(C[C@@H](C#N)NC(=O)[C@@H]6CNCCCO6)cc5)cc43)C2)CC1 [Compound I8] | > 2.5 nM | ≤ 76.5% | 5 to 15 nM | ≥ 66.7% |  | 
